Laboratory results from patent US20060128715A1, “Oxime derivative hydroxyethylamine aspartyl-protease inhibitors” (priority 2004, published 2006).
Several values for one entry are separate records, joined by “and”; a condition that tells them apart may be missing. Equal entries are not always repeated.

system: cathepsin D (catD) versus beta-secretase (BACE); test: Selectivity for BACE versus catD (ratio of IC50 values); assay type: biochemical; conditions: each value is an average of four experimental runs; multiple values = more than one experiment
Description: (§1) Selectivity was calculated as a ratio of inhibition (IC50) values in which the inhibition of beta-secretase was compared to the inhibition of other aspartyl proteases.
In the following examples, each value is an average of four experimental runs and multiple values for one compound indicate that more than one experiment was conducted.

Row | Structure (SMILES) | Selectivity IC50(catD)/IC50(BACE)
1 | CC(C)(C)c1cccc(C2(NCC(O)C(Cc3cc(F)cc(F)c3)NS(C)(=O)=O)CCc3n[nH]cc3C2)c1 (single isomer, unassigned) [Example 50-15] | 25.4
2 | CC(C)(C)c1cccc(C2(NCC(O)C(Cc3cc(F)cc(F)c3)NS(C)(=O)=O)CCc3n[nH]cc3C2)c1 (single isomer, unassigned) [Example 50-16] | 2.7
3 | Cn1cc2c(n1)CCC(NCC(O)C(Cc1cc(F)cc(F)c1)NS(C)(=O)=O)(c1cccc(C(C)(C)C)c1)C2 (single isomer, unassigned) [Example 50-18] | 11.0
4 | CC(C)(C)c1cccc(C2(NCC(O)C(Cc3cc(F)cc(F)c3)NC(=O)CF)CCc3n[nH]cc3C2)c1 (single isomer, unassigned) [Example 50-26] | 17.8
5 | CC(C)(C)c1cccc(C2(NCC(O)C(Cc3cc(F)cc(F)c3)NC(=O)CF)CCc3n[nH]cc3C2)c1 (single isomer, unassigned) [Example 50-27] | 7.8
6 | CON=C1CCC(NCC(O)C(Cc2cc(F)cc(F)c2)NC(C)=O)(c2cccc(C(C)(C)C)c2)CC1 (stereo not drawn) [Example 50-2] | 15.9 and 18.3
7 | CCON=C1CCC(NCC(O)C(Cc2cc(F)cc(F)c2)NC(C)=O)(c2cccc(C(C)(C)C)c2)CC1 (stereo not drawn) [Example 50-3] | 1.8
8 | CC(=O)NC(Cc1cc(F)cc(F)c1)C(O)CNC1(c2cccc(C(C)(C)C)c2)CCC(=NOCCO)CC1 (stereo not drawn) [Example 50-4] | 2.3 and 2.5
9 | CC(=O)NC(Cc1cc(F)cc(F)c1)C(O)CNC1(c2cccc(C(C)(C)C)c2)CCc2nn(C(C)=O)cc2C1 (stereo not drawn) [Example 50-12] | 11.1
10 | CC(=O)NC(Cc1cc(F)cc(F)c1)C(O)CNC1(c2cccc(C(C)(C)C)c2)CCC(=CC#N)CC1 (stereo not drawn) [Example 50-14] | 1.9
11 | CC(=O)NC(Cc1cc(F)cc(F)c1)C(O)CNC1(c2cccc(-c3ccsc3)c2)CCc2nn(C)cc2C1 (stereo not drawn) [Example 50-17] | 1.1
12 | CC(=O)NC(Cc1cc(F)cc(F)c1)C(O)CNC1(c2cccc(-c3ccoc3)c2)CCc2nn(C)cc2C1 (stereo not drawn) [Example 50-19] | 1.8
13 | CC(=O)NC(Cc1ccccc1)C(O)CNC1(c2cccc(C(C)(C)C)c2)CCc2n[nH]cc2C1 (stereo not drawn) [Example 50-20] | 19.1
14 | Cn1cc2c(n1)CCC(NCC(O)C(Cc1cc(F)cc(F)c1)NC(=O)CF)(c1cccc(C(C)(C)C)c1)C2 (stereo not drawn) [Example 50-22] | 2.0
15 | CC(=O)NC(Cc1cc(F)cc(F)c1)C(O)CNC1(c2cccs2)CCc2n[nH]cc2C1 (stereo not drawn) [Example 50-23] | 4.5
16 | CC(=O)NC(Cc1cc(F)cc(F)c1)C(O)CNC1(c2cc(CC(C)(C)C)cs2)CCc2n[nH]cc2C1 (stereo not drawn) [Example 50-24] | 5.9 and 7.0
17 | CC(C)(C)c1cccc(C2(NCC(O)C(Cc3cc(F)cc(F)c3)NC(=O)CF)CCc3n[nH]cc3C2)c1 (stereo not drawn) [Example 50-25] | 8.5
18 | CC(=O)NC(Cc1cc(F)cc(F)c1)C(O)CNC1(c2cccc(C(C)(C)C)c2)CCc2nn(C)cc2C1 (stereo not drawn) [Example 50-28] | 2.8
19 | CC(=O)NC(CC(C)C)C(O)CNC1(c2cccc(C(C)(C)C)c2)CCc2n[nH]cc2C1 (stereo not drawn) [Example 50-29] | 16.3

system: cathepsin E (catE) versus beta-secretase (BACE); test: Selectivity for BACE versus catE (ratio of IC50 values); assay type: biochemical; conditions: multiple values = more than one experiment
Description: as §1
Selectivity is reported as the ratio of IC50(catE):IC50(BACE).

Row | Structure (SMILES) | Selectivity IC50(catE)/IC50(BACE)
20 | CC(C)(C)c1cccc(C2(NCC(O)C(Cc3cc(F)cc(F)c3)NS(C)(=O)=O)CCc3n[nH]cc3C2)c1 (single isomer, unassigned) [Example 51-18] | 23.2
21 | CC(C)(C)c1cccc(C2(NCC(O)C(Cc3cc(F)cc(F)c3)NS(C)(=O)=O)CCc3n[nH]cc3C2)c1 (single isomer, unassigned) [Example 51-19] | 5.8
22 | CON=C1CCC(NCC(O)C(Cc2cc(F)cc(F)c2)NC(C)=O)(c2cccc(C(C)(C)C)c2)CC1 (stereo not drawn) [Example 51-2] | 9.3 and 10.4
23 | CCON=C1CCC(NCC(O)C(Cc2cc(F)cc(F)c2)NC(C)=O)(c2cccc(C(C)(C)C)c2)CC1 (stereo not drawn) [Example 51-3] | 3.3
24 | CC(=O)NC(Cc1cc(F)cc(F)c1)C(O)CNC1(c2cccc(C(C)(C)C)c2)CCc2nn(C(C)=O)cc2C1 (stereo not drawn) [Example 51-12] | 8.4
25 | C=C1CCC(NCC(O)C(Cc2cc(F)cc(F)c2)NC(C)=O)(c2cccc(C(C)(C)C)c2)CC1 (stereo not drawn) [Example 51-14] | 1.9
26 | CC(=O)NC(Cc1cc(F)cc(F)c1)C(O)CNC1(c2cccc(C(C)(C)C)c2)CCC(=CC#N)CC1 (stereo not drawn) [Example 51-17] | 3.9
27 | CC(=O)NC(Cc1cc(F)cc(F)c1)C(O)CNC1(c2cccc(-c3ccsc3)c2)CCc2nn(C)cc2C1 (stereo not drawn) [Example 51-20] | 1.1
28 | Cn1cc2c(n1)CCC(NCC(O)C(Cc1cc(F)cc(F)c1)NS(C)(=O)=O)(c1cccc(C(C)(C)C)c1)C2 (stereo not drawn) [Example 51-21] | 4.8
29 | CC(=O)NC(Cc1cc(F)cc(F)c1)C(O)CNC1(c2cccc(-n3cccn3)c2)CCc2nn(C)cc2C1 (stereo not drawn) [Example 51-22] | 1.8
30 | CC(=O)NC(Cc1cc(F)cc(F)c1)C(O)CNC1(c2cccc(C(C)(C)C)c2)CCc2nn(C)cc2C1 (stereo not drawn) [Example 51-23] | 1.8
